Article PMC4492764, “Evaluation of biomarkers for in vitro prediction of drug-induced nephrotoxicity: comparison of HK-2, immortalized human proximal tubule epithelial, and primary cultures of human proximal tubular cells” (Pharmacology Research & Perspectives, 2015)
Structures can show the parent of a compound that is named as a salt.

What was measured:
Format in all cases: cell-based, human
[1] = test system: NGAL; assay: NGAL protein ELISA in HK-2 cells; set-up: key: +: statistically significant increase; −: no significant increase; conditions: protein levels in culture medium; 72 h time point
Method: (§1) HK-2 cells (ATCC CRL-2190; Manassas, VA) were maintained in DMEM/F12 (Life Technologies; Sydney, NSW, Australia) supplemented with 5 μg/mL insulin, 5 μg/mL transferrin, 5 ng/mL sodium selenite (ITS; Roche; […] (passage 2) and culture kits were purchased from Lonza. […] were maintained in Renal Epithelial Cell BulletKitTM (CC-3190, Lonza) at 37°C and 5% CO2 atmosphere. Cells were passaged to 96-well plates with a density of 4000 cells/well. After 24 h culture, compounds with different concentration series were added into each well and incubated for 4, 24, 48, and 72 h. KIM-1 (DY1750), NGAL (DY1757), and M-CSF (DY216) Duo-Set® ELISA kits were purchased from R&D systems (Minneapolis, MN). Sandwich-ELISA experiments were conducted following the manufacturer's instructions with slight modifications. A 96-well microplate (MaxiSorp®, Nunc, Thermo Scientific, NSW, Australia) was coated with 100 μL of capture antibodies (diluted 1:200 in PBS) and incubated overnight. The plate was then washed twice with washing buffer (0.05% Tween 20 in PBS, pH 7.4) and blocked by adding 300 μL of blocking buffer (1% bovine serum albumin (BSA) in PBS) for 1 h at room temperature. After washing two times with PBS, 100 μL of samples (cell culture media or cell lysates) or standards were then added to each well and incubated for 2 h at room temperature. The biotinylated detection antibodies were then diluted in blocking buffer, added to each well and incubated for 2 h. Horseradish peroxidase (HRP)-labeled streptavidin (100 μL) was then added to bind to detection antibodies. To each well, 100 μL of substrate solution (1:1 mixture of H2O2 and tetramethylbenzidine) was added and incubated for 20 min before reaction termination with 50 μL of stop solution (2N H2SO4). The optical density of each well was measured at 450 nm using a POLARstar Omega plate reader (BMG Labtech). All assays were performed at least three times, with at least two technical replicates in each assay.

[2] = test system: KIM-1 mRNA; assay: KIM-1 mRNA qRT-PCR in HK-2 cells; set-up: key to Upregulation of KIM-1 HK-2 R: +: statistically significant increase; −: no significant increase; conditions: for Upregulation of KIM-1 HK-2 R: mRNA levels, 72 h time point
Method: (§2) HK-2 cells (ATCC CRL-2190; Manassas, VA) were maintained in DMEM/F12 (Life Technologies; Sydney, NSW, Australia) supplemented with 5 μg/mL insulin, 5 μg/mL transferrin, 5 ng/mL sodium selenite (ITS; Roche; […] (passage 2) and culture kits were purchased from Lonza. […] were maintained in Renal Epithelial Cell BulletKitTM (CC-3190, Lonza) at 37°C and 5% CO2 atmosphere. Cells were passaged to 96-well plates with a density of 4000 cells/well. After 24 h culture, compounds with different concentration series were added into each well and incubated for 4, 24, 48, and 72 h. HK-2 and […] were treated with compounds for 4, 24, 48, and 72 h, then the cells were lysed and the RNA reverse transcribed with the TaqMan® Gene Expression Cells-to-CTTM Kit (Life Technologies) according to the manufacturer's instructions. […] Hs00273334_m1), Lcn2 (NGAL; Hs01008571_m1), and Csf1 (M-CSF; Hs00174164_m1). All probes span an exon-exon junction. The real-time quantitative reverse transcription PCR (qRT-PCR) was performed in a 10 μl final reaction mixture using a ViiA 7TM system (Applied Biosystems®, Sydney, NSW, Australia) based on the following thermo cycling conditions: 10 min at 95°C for one cycle, 15 sec at 95°C, 60 sec at 60°C for 40 cycles. The ViiA 7TM software was used for data analysis with Hprt1 expression used for normalization. All assays were performed at least three times, with at least two technical replicates in each assay.

[3] = test system: NGAL mRNA; assay: NGAL mRNA qRT-PCR in HK-2 cells; set-up: key to Upregulation of NGAL HK-2 R: +: statistically significant increase; −: no significant increase; conditions: for Upregulation of NGAL HK-2 R: mRNA levels, 72 h time point
Method: as §2

[4] = test system: KIM-1; assay: KIM-1 protein ELISA in hRPTECs; set-up: key to Upregulation of KIM-1 hRPTECs P: +: statistically significant increase; −: no significant increase; conditions: protein levels in culture medium; 72 h time point
Method: as §1

[5] = test system: NGAL; assay: NGAL protein ELISA in hRPTECs; set-up: key to Upregulation of NGAL hRPTECs P: +: statistically significant increase; −: no significant increase; conditions: for Upregulation of NGAL hRPTECs P: protein levels in culture medium, 72 h time point
Method: as §1

[6] = test system: KIM-1 mRNA; assay: KIM-1 mRNA qRT-PCR in hRPTECs; set-up: key to Upregulation of KIM-1 hRPTECs R: +: statistically significant increase; −: no significant increase; conditions: mRNA levels; 72 h time point
Method: as §2

[7] = test system: NGAL mRNA; assay: NGAL mRNA qRT-PCR in hRPTECs; set-up: key to Upregulation of NGAL hRPTECs R: +: statistically significant increase; −: no significant increase; conditions: for NGAL mRNA levels in hRPTECs: 72 h exposure; for Upregulation of NGAL hRPTECs R: mRNA levels, 72 h time point
Method: as §2

Molecule: N.N.[Cl][Pt][Cl] [Cisplatin, cisplatin]
- Upregulation of NGAL HK-2 P [1]: −
- KIM-1 mRNA transcription level in HK-2 cells ([2]; 72 h, P < 0.005): increased
- Upregulation of KIM-1 HK-2 R [2]: +
- NGAL mRNA level in HK-2 cells ([3]; 72 h exposure, P < 0.01): clearly increased
- Upregulation of NGAL HK-2 R [3]: +
- Upregulation of KIM-1 hRPTECs P [4]: +
- Upregulation of NGAL hRPTECs P [5]: +
- Upregulation of KIM-1 hRPTECs R [6]: −
- NGAL mRNA levels in hRPTECs ([7]; 10 μmol/L, P < 0.05): kept rising
- Upregulation of NGAL hRPTECs R [7]: +

Molecule: CNC(C)C1CCC(N)C(OC2C(N)CC(N)C(OC3OCC(C)(O)C(NC)C3O)C2O)O1 (centres unmarked) [Gentamicin, gentamicin sulfate]
- Upregulation of NGAL HK-2 P [1]: −
- Upregulation of KIM-1 HK-2 R [2]: −
- Upregulation of NGAL HK-2 R [3]: −
- Upregulation of KIM-1 hRPTECs P [4]: +
- Upregulation of NGAL hRPTECs P [5]: +
- Upregulation of KIM-1 hRPTECs R [6]: −
- Upregulation of NGAL hRPTECs R [7]: −

Molecule: Colistin sulfate
- Upregulation of NGAL HK-2 P [1]: −
- Upregulation of KIM-1 HK-2 R [2]: −
- Upregulation of NGAL HK-2 R [3]: −
- Upregulation of KIM-1 hRPTECs P [4]: +
- NGAL protein upregulation in hRPTECs ([5]; 4 h, culture medium (Fig. S5C)): significant upregulation
- Upregulation of NGAL hRPTECs P [5]: +
- Upregulation of KIM-1 hRPTECs R [6]: −
- NGAL mRNA levels in hRPTECs ([7]; 100 μmol/L, P < 0.01): kept rising
- Upregulation of NGAL hRPTECs R [7]: +
